Laboratory results: paper PMC5171706 (2016)

What was measured:
[1] = test system: Pu24T (DNA, G4) TGAGGGTGGTGAGGGTGGGGAAGG; assay: fluorescence titration of Piperine; conditions: K+ (10 mM potassium phosphate, 50 mM KCl); pH 7.0, 25 °C; two-site saturation fit, Kd1 and Kd2 only in Figure 2 and Table S1
[2] = test system: tel22 (DNA, G4) AGGGTTAGGGTTAGGGTTAGGG; assay: fluorescence titration of Piperine; conditions: K+ (10 mM potassium phosphate, 50 mM KCl); pH 7.0, 25 °C; two-site saturation fit, Kd1 and Kd2 only in Figure 2 and Table S1
[3] = test system: Pu24T (DNA, G4) TGAGGGTGGTGAGGGTGGGGAAGG; assay: 1H NMR titration; conditions: K+ (potassium phosphate); 298 K, 400 μM Piperine, H2O/D2O 9:1; Piperine resonances broaden
[4] = test system: Pu24T (DNA, G4) TGAGGGTGGTGAGGGTGGGGAAGG; assay: gel mobility shift; conditions: K+ (10 mM potassium phosphate, 50 mM KCl); 20 μM DNA, room temperature
[5] = test system: tel22 (DNA, G4) AGGGTTAGGGTTAGGGTTAGGG; assay: time-resolved fluorescence (lifetime); conditions: K+ (10 mM potassium phosphate, 50 mM KCl); 40.0 μM Piperine, D/N 1.0 and 2.0; lifetime increases
[6] = test system: Pu24T (DNA, G4) TGAGGGTGGTGAGGGTGGGGAAGG; assay: UV melting at 295 nm; conditions: K+ (10 mM potassium phosphate, 50 mM KCl); pH 7.0; derived from two Tm (75.0 and 79.0 °C); D/N = 2.0; 78.0 °C at D/N 1.0

O=C(/C=C/C=C/c1ccc2c(c1)OCO2)N1CCCCC1
Kd1 [1]: 2.5 nM
Kd1 [2]: 87.5 nM
binding [3]: yes
binding [4]: yes
binding [5]: yes
ΔTm [6]: 4.0 °C
